Measured values taken from article PMC7037682, “Herb–Drug Interaction of Red Ginseng Extract and Ginsenoside Rc with Valsartan in Rats” (Molecules, 2020).

Tests used:
[1] = target: T1, OATP1B3 (Homo sapiens, UniProt Q9NPD5); experiment: Inhibition of OATP1B3-mediated [3H]estradiol-17β-D-glucuronide uptake in HEK293-OATP1B3 cells
T1 sequence (Q9NPD5 1-702): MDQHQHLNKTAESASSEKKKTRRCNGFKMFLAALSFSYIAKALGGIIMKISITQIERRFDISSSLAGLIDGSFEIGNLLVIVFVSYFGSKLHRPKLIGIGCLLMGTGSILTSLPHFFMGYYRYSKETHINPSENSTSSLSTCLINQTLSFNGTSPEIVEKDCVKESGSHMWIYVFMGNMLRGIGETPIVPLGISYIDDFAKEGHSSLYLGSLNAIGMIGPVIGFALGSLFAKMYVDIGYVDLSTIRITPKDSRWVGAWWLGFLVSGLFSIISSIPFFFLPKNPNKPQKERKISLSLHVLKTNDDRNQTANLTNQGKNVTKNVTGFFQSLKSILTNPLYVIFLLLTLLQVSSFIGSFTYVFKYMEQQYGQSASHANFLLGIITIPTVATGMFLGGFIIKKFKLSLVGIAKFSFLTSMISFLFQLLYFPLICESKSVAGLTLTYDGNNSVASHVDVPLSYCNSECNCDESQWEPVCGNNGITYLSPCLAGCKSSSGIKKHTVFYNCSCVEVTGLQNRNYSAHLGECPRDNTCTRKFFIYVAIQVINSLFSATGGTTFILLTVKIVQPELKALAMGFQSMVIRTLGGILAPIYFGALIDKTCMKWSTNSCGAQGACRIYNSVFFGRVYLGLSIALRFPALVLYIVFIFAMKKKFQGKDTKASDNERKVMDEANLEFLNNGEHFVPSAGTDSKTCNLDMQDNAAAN
Method: (§1) HEK293 cells overexpressing the OCT1, OCT2, OAT1, OAT3, OATP1B1, and OATP1B3 transporters (HEK293-OCT1, -OCT2, -OAT1, -OAT3, -OATP1B1, and -OATP1B3, respectively) and HEK293-mock cells (Corning Life Sciences; Woburn, MA, USA) were used and characterized as previously described.
(§2) HEK293 cells overexpressing drug transporters and HEK293-mock cells were seeded in poly-D-lysine-coated 96-well plates at a density of 10^5 cells/well and were cultured in DMEM supplemented with 10% FBS, 5 mM non-essential amino acids, and 2 mM sodium butyrate in a humidified atmosphere with 8% CO2 at 37 °C.
(§3) To examine the effects of ginsenosides and typical inhibitors on transporter activity, aliquots (100 μL) of HBSS containing the probe substrate and ginsenosides or typical inhibitors were added to the cells after aspirating pre-incubated HBSS. The concentrations and probe substrates were as follows: 0.1 μM [^3H]MPP^+ for OCT1 and OCT2, 0.1 μM [^3H]PAH for OAT1, 0.1 μM [^3H]ES for OAT3 and OATP1B1, and 0.1 μM [^3H]EG for OATP1B3. […] Then the uptake of probe substrates into HEK293-mock cells and HEK293-OCT1, -OCT2, -OAT1, -OAT3, -OATP1B1, and -OATP1B3 cells in the presence and absence of typical inhibitor or each ginsenoside with previously described concentration range was measured for 5 min. Immediately after placing the plates on ice, the cells were washed three times with 100 μL of ice-cold HBSS, followed by lysing with 50 μL of 10% SDS solution and mixing with 150 μL of Optiphase cocktail solution (Perkin Elmer Inc., Boston, MA, USA). The radioactivity of the probe substrates in the cells was determined using a liquid scintillation counter.
(§4) In the inhibition studies, the uptake rate of substrate by HEK293 cells overexpressing the respective transporters was used as the control (100%) and the uptake rate of substrates in the presence of typical inhibitors or ginsenosides expressed as a percentage of the control. The inhibition data were fitted to an inhibitory effect model using Sigma plot (version 10.0; Systat Software Inc., San Jose, CA, USA). IC50 value indicated the half-maximal inhibitory concentration of the inhibitor.

[2] = target: T1, OATP1B3; experiment: Inhibition of OATP1B3-mediated valsartan uptake in HEK293-OATP1B3 cells; format: cell-based; parameters: host or cells: HEK293; settings: 5 μM valsartan, 5 min
Method: (§5) Transporter mediated uptake of probe substrates or valsartan was calculated by subtracting the uptake rate of probe substrates or valsartan into HEK293-mock cells from that into HEK293 cells expressing respective transporters.

[3] = target: T2, OATP1B1 (Homo sapiens, UniProt Q9Y6L6); experiment: Inhibition of OATP1B1-mediated [3H]estrone-3-sulfate uptake in HEK293-OATP1B1 cells
T2 sequence (Q9Y6L6 1-691): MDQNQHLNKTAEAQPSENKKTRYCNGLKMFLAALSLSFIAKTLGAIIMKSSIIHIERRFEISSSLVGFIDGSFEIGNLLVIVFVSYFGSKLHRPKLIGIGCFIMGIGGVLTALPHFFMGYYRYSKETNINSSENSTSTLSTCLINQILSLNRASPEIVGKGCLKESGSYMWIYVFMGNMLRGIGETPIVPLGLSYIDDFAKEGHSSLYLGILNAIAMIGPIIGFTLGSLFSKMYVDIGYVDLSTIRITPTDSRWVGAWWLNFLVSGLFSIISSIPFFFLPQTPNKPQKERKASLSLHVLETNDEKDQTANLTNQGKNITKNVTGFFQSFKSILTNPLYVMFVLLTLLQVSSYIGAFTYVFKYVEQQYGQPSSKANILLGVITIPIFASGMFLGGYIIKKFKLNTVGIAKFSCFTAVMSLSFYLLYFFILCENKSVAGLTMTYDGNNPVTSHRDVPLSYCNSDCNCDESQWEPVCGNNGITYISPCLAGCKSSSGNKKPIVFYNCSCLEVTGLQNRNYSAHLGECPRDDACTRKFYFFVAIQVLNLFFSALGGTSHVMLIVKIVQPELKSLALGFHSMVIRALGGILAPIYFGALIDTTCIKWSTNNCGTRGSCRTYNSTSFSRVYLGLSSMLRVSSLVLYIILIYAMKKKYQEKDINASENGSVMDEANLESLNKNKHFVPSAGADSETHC
Method: as §1, §2, §3, §4

[4] = target: T2, OATP1B1; experiment: Inhibition of OATP1B1-mediated valsartan uptake in HEK293-OATP1B1 cells; format: cell-based; parameters: host or cells: HEK293; settings: 5 μM valsartan, 5 min
Method: as §5

[5] = Literature rifampin plasma concentration in rats after oral 20 mg/kg; format: in vivo, rat; settings: oral rifampin 20 mg/kg, from literature plasma concentration and protein binding ref 23, 39, 40
[6] = parameters: method as in PMID 25297453, PMID 22139693, PMID 26725427; settings: rats ref 23, 39, 40; cited from earlier work
[7] = parameters: method as in PMID 25297453, PMID 22139693, PMID 26725427; settings: rats, cited from earlier work

CO[C@H]1/C=C/O[C@@]2(C)Oc3c(C)c(O)c4c(O)c(c(/C=N/N5CCN(C)CC5)c(O)c4c3C2=O)NC(=O)/C(C)=C\C=C\[C@H](C)[C@H](O)[C@@H](C)[C@@H](O)[C@@H](C)[C@H](OC(C)=O)[C@@H]1C [Rifampin, rifampin, reference compound] gave an IC50 [1] of 0.81 µM, an IC50 [2] of 3.6 µM and an IC50 [3] of 28.6 µM. For the same compound, the IC50 [4] was 13.8 µM, the “unbound concentration of rifampin” value [5] was 4.7 to 22.9 µM and the “protein binding of rifampin” value [6] was 23.1%. For the same compound, the Cmax of rifampin ([7]; oral rifampin 20 mg/kg ref 23, 39, 40) was 15700 to 24500 ng/mL and the “plasma concentration of rifampin” value ([7]; oral rifampin 20 mg/kg, for 12 h ref 23, 39, 40) was “over 5 μg/mL”.
